Assay results taken from US12662489B2 (Sitryx Therapeutics Limited, priority 2023, dated 2026).

How the values were obtained:
[1] = target: T1, MTHFD1 recombinant human enzyme (Homo sapiens, UniProt P11586); assay: MTHFD1 inhibition assay (NAD(P)H-Glo luminescence); conditions: MTHFD1 IC50, recombinant human enzyme 200 nM, NADP, band
T1 sequence (P11586 2-291 limits assumed): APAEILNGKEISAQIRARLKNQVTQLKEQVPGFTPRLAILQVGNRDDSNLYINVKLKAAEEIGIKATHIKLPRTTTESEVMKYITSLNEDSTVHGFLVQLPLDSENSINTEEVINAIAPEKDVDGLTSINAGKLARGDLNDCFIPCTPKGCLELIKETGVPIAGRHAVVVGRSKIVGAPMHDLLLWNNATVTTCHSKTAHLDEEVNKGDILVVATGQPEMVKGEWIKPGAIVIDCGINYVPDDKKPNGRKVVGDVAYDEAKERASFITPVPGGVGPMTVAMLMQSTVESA

[2] = target: T2, MTHFD2 recombinant human enzyme (Homo sapiens, UniProt P13995); assay: MTHFD2 inhibition assay (NAD(P)H-Glo luminescence); conditions: for MTHFD1/MTHFD2 IC50 ratio: selectivity of MTHFD2 inhibition over MTHFD1, band
T2 sequence (P13995 36-350): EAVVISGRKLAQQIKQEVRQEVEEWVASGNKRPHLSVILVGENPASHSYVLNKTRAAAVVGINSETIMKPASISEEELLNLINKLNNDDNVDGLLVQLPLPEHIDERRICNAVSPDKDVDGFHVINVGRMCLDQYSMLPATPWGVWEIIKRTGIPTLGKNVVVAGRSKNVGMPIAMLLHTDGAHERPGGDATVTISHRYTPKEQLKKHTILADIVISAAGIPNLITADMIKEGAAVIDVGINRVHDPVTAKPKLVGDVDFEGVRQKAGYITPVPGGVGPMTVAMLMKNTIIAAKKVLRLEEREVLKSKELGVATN

[3] = test system: human CD4+ T cells; assay: Human CD4+ T-cell proliferation assay (CFSE, CD3/28 beads); conditions: read-out: Proliferation IC50

Compound | IC50 [1] | IC50 [2] | MTHFD1/MTHFD2 IC50 ratio [2] | IC50 [3]
COC[C@H]1CN(c2cc(C)c3c4c(c(=O)oc3c2C)CN(C(=O)c2ccc(C(=O)NS(=O)(=O)N3CC5CCCCC5C3)cc2)CC4)CCN1C (stereo partly drawn) [Example 211, 4-(8-((R)-3-(methoxymethyl)-4-methylpiperazin-1-yl)-7,10-dimethyl-5-oxo-1,3,4,5-tetrahydro-2H-chromeno[3,4-c]pyridine-3-carbonyl)-N-((octahydro-2H-isoindol-2-yl)sulfonyl)benzamide] | 1000 to 5000 nM | 10 to 100 nM | H (>9.0 to 30) | 1000 to 5000 nM
COC[C@H]1CN(c2ccc3c4c(c(=O)oc3c2C)CN(C(=O)c2ccc(C(=O)NS(=O)(=O)C3(C)CC3)c(N3CCCC3)c2)CC4)CCN1C [Example 15, (R)-4-(8-(3-(methoxymethyl)-4-methylpiperazin-1-yl)-7-methyl-5-oxo-1,3,4,5-tetrahydro-2H-chromeno[3,4-c]pyridine-3-carbonyl)-N-((1-methylcyclopropyl)sulfonyl)-2-(pyrrolidin-1-yl)benzamide] | 10 to 100 nM | 10 to 100 nM | F (<3) | 1 to 10 nM
COC[C@H]1CN(c2ccc3c4c(c(=O)oc3c2C)CN(C(=O)c2cc(F)c(C(=O)NS(=O)(=O)C3(C)CC3)c(N3C5CCC3CC5)c2)CC4)CCN1C [Example 22, (R)-2-(7-azabicyclo[2.2.1]heptan-7-yl)-6-fluoro-4-(8-(3-(methoxymethyl)-4-methylpiperazin-1-yl)-7-methyl-5-oxo-1,3,4,5-tetrahydro-2H-chromeno[3,4-c]pyridine-3-carbonyl)-N-((1-methylcyclopropyl)sulfonyl)benzamide] | 1 to 10 nM | 1 to 10 nM | F (<3) | 10 to 30 nM
COC[C@H]1CN(c2cc(C)c3c4c(c(=O)oc3c2C)CN(C(=O)c2ccc(C(=O)NS(=O)(=O)N3CCCC3)c(OC)c2F)CC4)CCN1C [Example 135, (R)-3-fluoro-2-methoxy-4-(8-(3-(methoxymethyl)-4-methylpiperazin-1-yl)-7,10-dimethyl-5-oxo-1,3,4,5-tetrahydro-2H-chromeno[3,4-c]pyridine-3-carbonyl)-N-(pyrrolidin-1-ylsulfonyl)benzamide] | 10 to 100 nM | 1 to 10 nM | G (^ 3 to 9.0) | 10 to 30 nM
COC[C@H]1CN(c2cc(C)c3c4c(c(=O)oc3c2C)CN(C(=O)c2cc(N(C)C)c(C(=O)NS(=O)(=O)C3(C)CC3)cc2Cl)CC4)CCN1C [Example 151, (R)-5-chloro-2-(dimethylamino)-4-(8-(3-(methoxymethyl)-4-methylpiperazin-1-yl)-7,10-dimethyl-5-oxo-1,3,4,5-tetrahydro-2H-chromeno[3,4-c]pyridine-3-carbonyl)-N-((1-methylcyclopropyl)sulfonyl)benzamide] | 1000 to 5000 nM | 10 to 100 nM | J (>30) | 100 to 1000 nM
COC[C@H]1CN(c2cc(C)c3c4c(c(=O)oc3c2C)CN(C(=O)c2ccc(C(=O)NS(=O)(=O)N3CCCC3)c(Cl)c2F)CC4)CCN1C [Example 178, (R)-2-chloro-3-fluoro-4-(8-(3-(methoxymethyl)-4-methylpiperazin-1-yl)-7,10-dimethyl-5-oxo-1,3,4,5-tetrahydro-2H-chromeno[3,4-c]pyridine-3-carbonyl)-N-(pyrrolidin-1-ylsulfonyl)benzamide] | 100 to 1000 nM | 10 to 100 nM | J (>30) | 100 to 1000 nM

The next lines start with results.

IC50 [1] | IC50 [2] | MTHFD1/MTHFD2 IC50 ratio [2] | Compound | IC50 [3]
1000 to 5000 nM | 10 to 100 nM | J (>30) | COC[C@H]1CN(c2cc(Cl)c3c4c(c(=O)oc3c2C)CN(C(=O)c2cc(F)c(C(=O)NS(=O)(=O)N3CCCC3)cc2C)CC4)CCN1C [Example 310, (R)-4-(10-chloro-8-(3-(methoxymethyl)-4-methylpiperazin-1-yl)-7-methyl-5-oxo-1,3,4,5-tetrahydro-2H-chromeno[3,4-c]pyridine-3-carbonyl)-2-fluoro-5-methyl-N-(pyrrolidin-1-ylsulfonyl)benzamide] | 30 to 100 nM
10 to 100 nM | 10 to 100 nM | G (^ 3 to 9.0) | CCOc1cc(C(=O)N2CCc3c(c(=O)oc4c(C)c(N5CCN(C)[C@@H](COC)C5)cc(C)c34)C2)c(F)cc1C(=O)NS(=O)(=O)N1CC2CC2C1 (stereo partly drawn) [Example 219, N-((3-azabicyclo[3.1.0]hexan-3-yl)sulfonyl)-2-ethoxy-5-fluoro-4-(8-((R)-3-(methoxymethyl)-4-methylpiperazin-1-yl)-7,10-dimethyl-5-oxo-1,3,4,5-tetrahydro-2H-chromeno[3,4-c]pyridine-3-carbonyl)benzamide] | 10 to 30 nM
100 to 1000 nM | 1 to 10 nM | J (>30) | COC[C@H]1CN(c2cc(C)c3c4c(c(=O)oc3c2C)CN(C(=O)c2cc(N(C)C)c(C(=O)NS(=O)(=O)N3CC[C@H](F)C3)cc2F)CC4)CCN1C [Example 254, 2-(dimethylamino)-5-fluoro-N-(((S)-3-fluoropyrrolidin-1-yl)sulfonyl)-4-(8-((R)-3-(methoxymethyl)-4-methylpiperazin-1-yl)-7,10-dimethyl-5-oxo-1,3,4,5-tetrahydro-2H-chromeno[3,4-c]pyridine-3-carbonyl)benzamide] | 10 to 30 nM
100 to 1000 nM | 10 to 100 nM | J (>30) | COC[C@H]1CN(c2cc(Cl)c3c4c(c(=O)oc3c2C)CN(C(=O)c2cc(N(C)C)c(C(=O)NS(=O)(=O)N3C[C@H]5C[C@@H]3CO5)cc2F)CC4)CCN1C [Example 294, N-(((1R,4R)-2-oxa-5-azabicyclo[2.2.1]heptan-5-yl)sulfonyl)-4-(10-chloro-8-((R)-3-(methoxymethyl)-4-methylpiperazin-1-yl)-7-methyl-5-oxo-1,3,4,5-tetrahydro-2H-chromeno[3,4-c]pyridine-3-carbonyl)-2-(dimethylamino)-5-fluorobenzamide] | 10 to 30 nM
100 to 1000 nM | 1 to 10 nM | J (>30) | COC[C@H]1CN(c2cc(C)c3c4c(c(=O)oc3c2C)CN(C(=O)c2cc(N(C)C)c(C(=O)NS(=O)(=O)N(C)C3CC3)cc2F)CC4)CCN1C [Example 257, (R)-N-(N-cyclopropyl-N-methylsulfamoyl)-2-(dimethylamino)-5-fluoro-4-(8-(3-(methoxymethyl)-4-methylpiperazin-1-yl)-7,10-dimethyl-5-oxo-1,3,4,5-tetrahydro-2H-chromeno[3,4-c]pyridine-3-carbonyl)benzamide] | 1 to 10 nM
100 to 1000 nM | 1 to 10 nM | J (>30) | COC[C@H]1CN(c2cc(C)c3c4c(c(=O)oc3c2C)CN(C(=O)c2cc(N(C)C)c(C(=O)NS(=O)(=O)N3CC5(CCC5)C3)cc2F)CC4)CCN1C [Example 253, (R)-N-((2-azaspiro[3.3]heptan-2-yl)sulfonyl)-2-(dimethylamino)-5-fluoro-4-(8-(3-(methoxymethyl)-4-methylpiperazin-1-yl)-7,10-dimethyl-5-oxo-1,3,4,5-tetrahydro-2H-chromeno[3,4-c]pyridine-3-carbonyl)benzamide] | 10 to 30 nM
100 to 1000 nM | 1 to 10 nM | J (>30) | COC[C@H]1CN(c2cc(Cl)c3c4c(c(=O)oc3c2C)CN(C(=O)c2cc(N(C)C)c(C(=O)NS(=O)(=O)N3CC5(CCC5)C3)cc2F)CC4)CCN1C [Example 318, (R)-N-((2-azaspiro[3.3]heptan-2-yl)sulfonyl)-4-(10-chloro-8-(3-(methoxymethyl)-4-methylpiperazin-1-yl)-7-methyl-5-oxo-1,3,4,5-tetrahydro-2H-chromeno[3,4-c]pyridine-3-carbonyl)-2-(dimethylamino)-5-fluorobenzamide] | 10 to 30 nM
100 to 1000 nM | 1 to 10 nM | J (>30) | COC[C@H]1CN(c2cc(C)c3c4c(c(=O)oc3c2C)CN(C(=O)c2cc(F)c(C(=O)NS(=O)(=O)N3CCCC3)cc2OC)CC4)CCN1C [Example 266, (R)-2-fluoro-5-methoxy-4-(8-(3-(methoxymethyl)-4-methylpiperazin-1-yl)-7,10-dimethyl-5-oxo-1,3,4,5-tetrahydro-2H-chromeno[3,4-c]pyridine-3-carbonyl)-N-(pyrrolidin-1-ylsulfonyl)benzamide] | 1000 to 5000 nM
100 to 1000 nM | 10 to 100 nM | J (>30) | CCOc1cc(C(=O)N2CCc3c(c(=O)oc4c(C)c(N5CCN(C)[C@@H](COC)C5)cc(CC)c34)C2)c(F)cc1C(=O)NS(=O)(=O)N1CCCC1 [Example 244, (R)-2-ethoxy-4-(10-ethyl-8-(3-(methoxymethyl)-4-methylpiperazin-1-yl)-7-methyl-5-oxo-1,3,4,5-tetrahydro-2H-chromeno[3,4-c]pyridine-3-carbonyl)-5-fluoro-N-(pyrrolidin-1-ylsulfonyl)benzamide] | 100 to 1000 nM
